Experimental data from patent US4346087A, “Antibacterial surface active agent containing azaalkenelactam” (priority 1979, dated 1982).
Converted amounts (≈) assume the structure as drawn. Like-named read-outs stand apart in the source and are kept apart here.

Experiments:
Type in all cases: cell-based
Escherichia coli NIHJ = assay: MIC against Escherichia coli NIHJ; conditions: Escherichia coli
From the text: (§1) Below are described the antibacterial activities of the compounds in the compositions according to this invention.
(§2) The testing method complied with the standard method of Japan Sociaty of Chemotherapy.

[1] = system: Staphylococcus aureus FDA 209P; assay: MIC against Staphylococcus aureus FDA 209P; conditions: Staphylococcus aureus, FDA209P
From the text: as §1, §2

[2] = system: Desulfovibrio desulfuricans IFO 13699; assay: MIC against Desulfovibrio desulfuricans; conditions: Desulfovibrio desulfuricans, IFO13699, 24 h
From the text: as §1, §2

[3] = Table 2, derivatives having a carboxylate radical, heart infusion agar, 37° C., 24 hours, read-out: MIC

Compound | MIC (Escherichia coli NIHJ; 24 h) [µg/mL] | MIC ([1]; 24 h) [µg/mL] | MIC [2] [µg/mL] | MIC (Escherichia coli NIHJ; [3]) [µg/mL] | MIC [1, 3] [µg/mL]
CCCCCCCCC=CCCCCCCCCN1CC[N+](CC(=O)[O-])=CCCC1=O [4-(9-octadecenyl)-4-aza-1-azoniacyclooct-8-en-5-one-1-acetate] | 400 (≈ 920 µM) | 200 (≈ 460 µM) | 50 (≈ 115 µM) |  | 
CCCCCCCCCCCCCCCCCCCCCC(=O)OCCN1CC[N+](CC(=O)[O-])=CCCC1=O [4-behenoyloxyethyl-4-aza-1-azoniacyclooct-8-en-5-one-1-acetate] | 200 (≈ 363 µM) | 100 (≈ 182 µM) | 12.5 (≈ 22.7 µM) |  | 
CCCCCCCCCCCCCCCCCCCCCCNCCN1CC[N+](CC(=O)[O-])=C(C)CC1=O [4-docosylaminoethyl-7-methyl-1-azonia-4-azacyclohept-7-en-5-one-1-acetate] |  | 12.5 (≈ 23.3 µM) | 12.5 (≈ 23.3 µM) | 3200 (≈ 5970 µM) | 
CCCCCCCCCCCCOCCNCCN1CC[N+](CC(=O)[O-])=C(C)CC1=O [4-dodecoxyaminoethyl-7-methyl-1-azonia-4-azacyclohept-7-en-5-one-1-acetate] | 200 (≈ 455 µM) | 25 (≈ 56.9 µM) | 25 (≈ 56.9 µM) |  | 
CCCCCCCCCCCCN1CC[N+](CC(=O)[O-])=CC(C)C1=O (stereo not drawn) [4-dodecyl-6-methyl-1-azonia-4-azacyclohept-7-en-5-one-1-acetate] |  | 25 (≈ 70.9 µM) | 25 (≈ 70.9 µM) | 800 (≈ 2270 µM) | 
CCCCCCCCCCCCN1CC[N+](CC(=O)[O-])=C(C)CC1=O [4-dodecyl-7-methyl-1-azonia-4-azacyclohept-7-en-5-on-1-acetate] |  | 50 (≈ 142 µM) | 12.5 (≈ 35.5 µM) | 3200 (≈ 9080 µM) | 
CCCCCCCCCCCCNCCN1CC[N+](CC(=O)[O-])=C(C)CC1=O [4-dodecylaminoethyl-7-methyl-1-azonia-4-azacyclohept-7-en-5-one-1-acetate] | 100 (≈ 253 µM) | 50 (≈ 126 µM) | 12.5 (≈ 31.6 µM) |  | 
CCCCCCCCCCCCNCCNCCN1CC[N+](CC(=O)[O-])=C(C)CC1=O [4-dodecylaminoethylaminoethyl-1-azonia-4-azacyclohept-7-en-5-one-1-acetate] | 100 (≈ 228 µM) | 12.5 (≈ 28.5 µM) | 6.25 (≈ 14.2 µM) |  | 
CCCCCCCCCCCCCCCCN1CC[N+](CC(=O)[O-])=C(C)CC1=O [4-hexadecyl-7-methyl-1-azonia-4-azacyclohept-7-en-5-one-1-acetate] |  | 100 (≈ 245 µM) | 12.5 (≈ 30.6 µM) | 3200 (≈ 7830 µM) | 
CCCCCCCCCCCC(=O)NCCN1CC[N+](CC(=O)[O-])=CC(C)C1=O (stereo not drawn) [4-lauramidoethyl-6-methyl-1-azonia-4-azacyclohept-7-en-5-one-1-acetate] | 50 (≈ 122 µM) | 12.5 (≈ 30.5 µM) | 6.25 (≈ 15.3 µM) |  | 
CCCCCCCCCCCC(=O)OCCN1CC[N+](CC(=O)[O-])=CC(C)C1=O (stereo not drawn) [4-lauroyloxyethyl-6-methyl-1-azonia-4-azacyclohept-7-en-5-one-1-acetate] | 200 (≈ 487 µM) | 50 (≈ 122 µM) | 50 (≈ 122 µM) |  | 
CCCCCCCCCCCC(=O)OCCN1CC[N+](CC(=O)[O-])=C(C)CC1=O [4-lauroyloxyethyl-7-methyl-1-azonia-4-azacyclohept-7-en-5-one-1-acetate] |  | 400 (≈ 974 µM) | 25 (≈ 60.9 µM) | 3200 (≈ 7790 µM) | 
CC1=[N+](CC(=O)[O-])CCN(CC(C)OCC(C)OCC(C)OCc2ccc(C)cc2)C(=O)C1 (stereo not drawn) [4-methylbenzylpoly(2 moles)oxypropyleneoxypropyl-7-methyl-1-azonia-4-azacyclohept-7-en-5-one-1-acetate] | 400 (≈ 865 µM) | 50 (≈ 108 µM) | 50 (≈ 108 µM) |  | 
CCCCCCCCCc1ccc(OCC(O)CNCCNCCNCCN2CC[N+](CC(=O)[O-])=CC(C)C2=O)cc1 (stereo not drawn) [4-nonylphenoxy(2-hydroxy)propylaminoethylaminoethylaminoethyl-6-methyl-1-azonia-4-azacyclohept-7-en-5-one-1-acetate] | 400 (≈ 678 µM) | 200 (≈ 339 µM) | 50 (≈ 84.8 µM) |  | 
CCCCCCCCCc1ccc(OCC(O)CNCCNCCNCCN2CC[N+](CC(=O)[O-])=CCC(C)C2=O)cc1 (stereo not drawn) [4-nonylphenoxy(2-hydroxy)propylaminoethylaminoethylaminoethyl-6-methyl-4-aza-1-azoniacyclooct-8-en-5-one-1-acetate] | 400 (≈ 662 µM) | 200 (≈ 331 µM) | 50 (≈ 82.8 µM) |  | 
CCCCCCCCCc1ccc(OCC(O)CNCCNCCNCCN2CC[N+](CC(=O)[O-])=C(C)CC2=O)cc1 (stereo not drawn) [4-nonylphenoxy(2-hydroxy)propylaminoethylaminoethylaminoethyl-7-methyl-1-azonia-4-azacyclohept-7-en-5-one-1-acetate] |  | 100 (≈ 170 µM) | 50 (≈ 84.8 µM) | 800 (≈ 1360 µM) | 
CCCCCCCC(=O)NCCN1CC[N+](C(C)C(=O)[O-])=CCCC1=O (stereo not drawn) [4-octamidoethyl-4-aza-1-azoniacyclooct-8-en-5-one-1-propionate] | 200 (≈ 544 µM) | 400 (≈ 1090 µM) | 50 (≈ 136 µM) |  | 
CCCCCCCC(=O)NCCN1CC[N+](CC(=O)[O-])=C(C)CC1=O [4-octamidoethyl-7-methyl-1-azonia-4-azacyclohept-7-en-5-one-1-acetate] | 100 (≈ 283 µM) |  | 50 (≈ 141 µM) |  | 800 (≈ 2260 µM)
CCCCCCCCOCCCN1CC[N+](CC(=O)[O-])=C(C)CC1=O [4-octoxypropyl-7-methyl-1-azonia-4-azacyclohept-7-en-5-one-1-acetate] |  | 50 (≈ 141 µM) | 50 (≈ 141 µM) | 1600 (≈ 4510 µM) | 
CCCCCCCC(=O)OCCN1CC[N+](CC(=O)[O-])=C(C)CC1=O [4-octoyloxyethyl-7-methyl-1-azonia-4-azacyclohept-7-en-5-one-1-acetate] |  |  | 50 (≈ 141 µM) | 3200 (≈ 9030 µM) | 800 (≈ 2260 µM)
CCCCCCCC/C=C\CCCCCCCC(=O)NCCN1CC[N+](CC(=O)[O-])=C(C)CC1=O [4-oleamidoethyl-7-methyl-1-azonia-4-azacyclohept-7-en-5-one-1-acetate] |  | 25 (≈ 50.8 µM) | 12.5 (≈ 25.4 µM) | 3200 (≈ 6510 µM) | 
CCCCCCCC/C=C\CCCCCCCC(=O)OCCN1CC[N+](CC(=O)[O-])=C(C)CC1=O [4-oleoyloxyethyl-7-methyl-1-azonia-4-azacyclohept-7-en-5-one-1-acetate] |  | 200 (≈ 406 µM) | 25 (≈ 50.7 µM) | 3200 (≈ 6490 µM) | 
CCCCCCCCOCCCN1CC[N+](CC(=O)[O-])=CC(C)(C)C1=O [4-oxtoxypropyl-6,6-dimethyl-1-azonia-4-azacyclohept-7-en-5-one-1-acetate] |  | 200 (≈ 543 µM) | 50 (≈ 136 µM) | 800 (≈ 2170 µM) | 
CCCCCC[C@@H](O)C/C=C\CCCCCCCC(=O)NCCN1CC[N+](CC(=O)[O-])=CC(C)(C)C1=O [4-ricinolamidoethyl-6,6-dimethyl-1-azonia-4-azacyclohept-7-en-5-one-1-acetate] |  | 400 (≈ 767 µM) | 50 (≈ 95.8 µM) | 1600 (≈ 3070 µM) | 
CCCCCCCCCCCCCCNCCN1CC[N+](CC(=O)[O-])=CCCC1=O [4-tetradecylaminoethyl-4-aza-1-azoniacyclooct-8-en-5-one-1-acetate] | 100 (≈ 236 µM) |  | 6.25 (≈ 14.8 µM) |  | 3.12 (≈ 7.36 µM)
CCCCCCCCCCCCCCNCCN1CC[N+](C(C)C(=O)[O-])=CC(C)(C)C1=O (stereo not drawn) [4-tetradecylaminoethyl-6,6-dimethyl-1-azonia-4-azacyclohept-7-en-5-one-1-propionate] | 100 (≈ 221 µM) | 6.25 (≈ 13.8 µM) | 6.25 (≈ 13.8 µM) |  | 
CCCCCCCCCCCCCCNCCN1CC[N+](CC(=O)[O-])=CC(C)C1=O (stereo not drawn) [4-tetradecylaminoethyl-6-methyl-1-azonia-4-azacyclohept-7-en-5-one-1-acetate] | 100 (≈ 236 µM) | 6.25 (≈ 14.8 µM) | 6.25 (≈ 14.8 µM) |  | 
